The values that follow come from BindingDB's records for doi:10.1111/cbdd.12529 (Birla Institute of Technology, 2015).

Test [1] deals with T1, DNA gyrase subunit B (Staphylococcus aureus, UniProt P0A0K8). Description: Supercoiling Assay. The settings on record: pH 7.6; 25 °C. The method, then:
Supercoiling assay was performed using the commercially available kit (DNA gyrase supercoiling assay kit: SAS4001) from Inspiralis Pvt.limited, Norwich, UK. The assay was performed in 1.5 mL eppendorf tubes at room temperature. […] KOH (pH 7.6), 10 mM magnesium acetate, 10 mM DTT, 2 mM ATP, 500 mM potassium glutamate, 0.05 mg/mL albumin (BSA). While the standard compound novobiocin was the positive control, 4% DMSO was considered as negative control. Subsequently, each reaction was stopped by the addition of 30 µL of Stop dye [40% sucrose, 100 mM Tris-HCl (pH 7.5), 1 mM EDTA and 0.5 mg/mL bromophenol blue] (8), briefly centrifuged for 45 sec and was run in 1% agarose gel in 1X TAE buffer (40mM Tris acetate, 2mM EDTA).

For test [2], the target named is T1, DNA gyrase subunit B. Description: GyraseB Assay. To be noted: pH 7.5. The method, then:
Initially, equimolar quantities of about 0.5µM each of E. coli gyraseA and S. aureus gyraseB were incubated for a period of 45 min with salmon sperm DNA (Sigma) in 50mM Tris (pH 7.5), 75mM ammonium acetate buffer for the reconstitution of the hybrid topoisomerases at 4 OC. Later the assay was performed in a 96-well microtiter plate as mentioned earlier (7). […] The reaction was allowed to proceed for 60 min and was quenched by addition of 20uL of malachite green reagent (POMG-25H, Bioassay systems, USA) subsequently absorbance was read at 650nm after 20 mi

T1 sequence (P0A0K8 whole entry): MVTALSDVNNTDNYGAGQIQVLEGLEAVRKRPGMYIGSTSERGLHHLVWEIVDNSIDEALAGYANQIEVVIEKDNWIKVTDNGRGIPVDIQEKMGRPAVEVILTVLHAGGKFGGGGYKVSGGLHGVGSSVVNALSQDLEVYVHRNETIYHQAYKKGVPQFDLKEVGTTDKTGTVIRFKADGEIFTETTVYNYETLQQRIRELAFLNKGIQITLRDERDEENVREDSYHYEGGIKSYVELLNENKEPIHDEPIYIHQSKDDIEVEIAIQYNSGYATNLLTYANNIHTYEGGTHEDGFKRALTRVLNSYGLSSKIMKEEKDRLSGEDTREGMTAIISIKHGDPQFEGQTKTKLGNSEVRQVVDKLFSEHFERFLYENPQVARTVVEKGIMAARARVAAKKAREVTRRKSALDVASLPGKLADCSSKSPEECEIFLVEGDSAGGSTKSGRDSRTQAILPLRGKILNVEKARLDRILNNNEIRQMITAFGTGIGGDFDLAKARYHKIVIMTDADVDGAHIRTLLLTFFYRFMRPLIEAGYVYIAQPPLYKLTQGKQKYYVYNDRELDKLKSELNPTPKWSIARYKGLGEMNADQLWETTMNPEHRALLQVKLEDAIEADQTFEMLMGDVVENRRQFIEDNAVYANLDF

By IC50 is commonly meant the concentration that gives 50% inhibition. Higher therefore signals a need for much substance. As for `Cc1ccc(C(=O)Nc2ccc(NC(=O)CCC(=O)O)cc2)o1` [4-(4-(5-methylfuran-2-carboxamido)phenylamino)-4-oxobutanoate (14)], the IC50 at DNA gyrase subunit B [1] was 6.12 µM; at DNA gyrase subunit B [2], 10.3 µM.

Regarding `Cc1ccc(C(=O)Nc2ccc(NC(=O)CCC(=O)NN)cc2)s1` [N-(4-(4-Hydrazinyl-4-oxobutanamido)phenyl)-5-methylthiophene-2-carboxamide (25)], the IC50 turned out to be 6.12 µM against DNA gyrase subunit B [1] and 9.71 µM at DNA gyrase subunit B [2]. The matching figures for `NNC(=O)CCC(=O)Nc1ccc(NC(=O)c2ccc([N+](=O)[O-])s2)cc1` [N-(4-(4-Hydrazinyl-4-oxobutanamido)phenyl)-5-nitrothiophene-2-carboxamide (26)]: 19.3 µM and 26.4 µM. Consider `NNC(=O)CCC(=O)Nc1ccc(NC(=O)c2ccc([N+](=O)[O-])o2)cc1` [N-(4-(4-Hydrazinyl-4-oxobutanamido)phenyl)-5-nitrofuran-2-carboxamide (23)], for which the IC50 against DNA gyrase subunit B [1] amounted to 25.1 µM; at DNA gyrase subunit B [2] it was 35.5 µM. With `O=C(O)CCC(=O)Nc1ccc(NC(=O)c2ccc([N+](=O)[O-])o2)cc1` [4-(4-(5-nitrofuran-2-carboxamido)phenylamino)-4-oxobutanoate (15)], the IC50 came out at 25.8 µM on DNA gyrase subunit B [1] and 28.9 µM on DNA gyrase subunit B [2].

With `NNC(=O)CCC(=O)Nc1ccc(NC(=O)c2ccco2)cc1` [N-(4-(4-Hydrazinyl-4-oxobutanamido)phenyl)furan-2-carboxamide (21)], the IC50 amounted to 23.9 µM against DNA gyrase subunit B [1] and 39.4 µM against DNA gyrase subunit B [2]. In the same order, the values of `O=C(O)CCC(=O)Nc1ccc(NC(=O)c2ccc([N+](=O)[O-])s2)cc1` [4-(4-(5-nitrothiophene-2-carboxamido)phenylamino)-4-oxobutanoate (18)] are 26.8 µM and 29.5 µM. In the same order, the values of `O=C(O)CCC(=O)Nc1ccc(NC(=O)c2ccc([N+](=O)[O-])s2)cc1` [4-((4-(5-nitrothiophene-2-carboxamido)phenyl)amino)-4-oxobutanoic acid (10)] are 6.12 µM and 12.5 µM. The molecule `O=C(O)CCC(=O)Nc1ccc(NC(=O)c2ccco2)cc1` [4-((4-(furan-2-carboxamido)phenyl)amino)-4-oxobutanoic acid (5)] showed a concentration for half-maximal inhibition (IC50) against DNA gyrase subunit B [1] of 3.12 µM. In the case of `NNC(=O)CCC(=O)Nc1ccc(NC(=O)c2ccc[nH]2)cc1` [N-(4-(4-Hydrazinyl-4-oxobutanamido)phenyl)-1H-pyrrole-2-carboxamide (27)], the concentration for half-maximal inhibition (IC50) on DNA gyrase subunit B [1] was determined as 43.1 µM; on DNA gyrase subunit B [2] it was 54.9 µM. In the case of `O=C(O)CCC(=O)Nc1ccc(NC(=O)c2cccs2)cc1` [4-oxo-4-((4-(thiophene-2-carboxamido)phenyl)amino)butanoate (16)], the concentration for half-maximal inhibition (IC50) against DNA gyrase subunit B [1] stood at 12.5 µM; at DNA gyrase subunit B [2], 22 µM.

For the molecule `O=C(O)CCC(=O)Nc1ccc(NC(=O)C2CCCO2)cc1` (stereo not drawn) [4-oxo-4-(4-(tetrahydrofuran-2-carboxamido)phenylamino)butanoate (20)], the half-maximal inhibitory concentration (IC50) against DNA gyrase subunit B [1] was 6.12 µM; against DNA gyrase subunit B [2], 11.7 µM. The matching figures for `Cc1ccc(C(=O)Nc2ccc(NC(=O)CCC(=O)O)cc2)s1` [4-(4-(5-methylthiophene-2-carboxamido)phenylamino)-4-oxobutanoate (17)]: 12.5 µM and 24.7 µM. With `Cc1ccc(C(=O)Nc2ccc(NC(=O)CCC(=O)NN)cc2)o1` [N-(4-(4-Hydrazinyl-4-oxobutanamido)phenyl)-5-methylfuran-2-carboxamide (22)], the results for the IC50 on DNA gyrase subunit B [1] and against DNA gyrase subunit B [2] were 2.79 µM and 5.35 µM, respectively. Take `O=C(O)CCC(=O)Nc1ccc(NC(=O)c2ccc[nH]2)cc1` [4-(4-(1H-pyrrole-2-carboxamido)phenylamino)-4-oxobutanoate (19)]: the half-inhibitory concentration (IC50) against DNA gyrase subunit B [1] was 13.7 µM; at DNA gyrase subunit B [2] it was 42.4 µM.

Regarding `NNC(=O)CCC(=O)Nc1ccc(NC(=O)c2cccs2)cc1` [N-(4-(4-Hydrazinyl-4-oxobutanamido)phenyl)thiophene-2-carboxamide (24)], the figures for the IC50 against DNA gyrase subunit B [1] and against DNA gyrase subunit B [2] were 28.1 µM and 32.6 µM, respectively.

For the molecule `NNC(=O)CCC(=O)Nc1ccc(NC(=O)C2CCCO2)cc1` (stereo not drawn) [N-(4-(4-Hydrazinyl-4-oxobutanamido)phenyl)tetrahydrofuran-2-carboxamide (28)], the values for the IC50 against DNA gyrase subunit B [1] and against DNA gyrase subunit B [2] were 23.1 µM and 41.2 µM, respectively.
